Assay results as given in US20030216330A1, “Parenteral, intravenous, and oral administration of oxazolidinones for treating diabetic foot infections” (PHARMACIA & UPJOHN, priority 2002, published 2003).

Columns and labels:
[1] = system: diabetic foot infection; assay: Open-label, comparator-controlled trial in patients with diabetic foot infection: clinical cure; type: in vivo, human
Excerpt: (§1) The clinically evaluable population comprised 317 patients, most of whom were male and white with a mean age of 63 years old. Patients with critical limb ischemia were excluded, but those with osteomyelitis could be included. […] Treatment was for 7-28 days with the mean treatment duration shown below in Table 1. Patients could be switched to PO therapy at the investigator's discretion.
(§2) The most common baseline pathogens were S. aureus (158 isolates, 31 of which were methicillin-resistant S. aureus (MRSA), coagulase-negative staphylococci (65), enterococci (60) and Streptococcus agalactiae (52). To cover methicillin-resistant S. aureus in the aminopenicillin regimen, IV vancomycin (1 g every 12 h or per dosing guidelines) was added to the amino/β-LI treated patients with MRSA isolated from the study wound. To cover possible resistant gram-negative rods in either regimen, IV aztreonam (1-2 g, IV, every 8-12 h) was permitted in both treatment arms for suspected/documented gram-negative pathogens. This is shown below in Table 2.
Infections were defined by clinical signs and symptoms and categorized as cellulites, deep soft tissue infections, infected ulcer, septic arthritis, paronychia, abscess or osteomyelitis. […] The most common types (sometimes combined) of infections were: ulcers (78%); cellulitis (45%); deep soft tissue (15%); paronychia (6%). Most patients in both arms were treated as outpatients (66%) with only oral therapy (73%) and with a single agent (87%). Clinical characteristics of the infected sites at baseline were similar in the treatment groups; most common were tenderness (97%), induration (95%), local warmth (92%), non-purulent drainage (82%) and erythema (47%).
Debridement and other surgical procedures (short of complete resection/amputation) were allowed and wounds were off-loaded (mechanical stress on the wounded area was avoided) as needed. There were no significant differences in adverse events in the two treatment arms.

[2] = system: Staphylococcus agalactiae; assay: Clinical outcome by baseline pathogen (MITT population); type: in vivo; conditions: baseline pathogen S. agalactiae
Excerpt: as §1, §2

[3] = system: baseline gram-positive pathogen; assay: Microbiological success rate in the diabetic foot infection trial; type: in vivo, human
Excerpt: as §1
(§3) Resistance to ampicillin/sulbactam was documented in 1 S. aureus isolate.

[4] = system: isolated pathogens; assay: Resistance of pathogens isolated in the trial to study medication; conditions: at baseline or developed during the trial
Excerpt: as §3

[5] = system: diabetic foot infection; assay: Example 3: parenteral treatment of a human with a diabetic foot infection; type: in vivo; conditions: 600 mg parenteral, two times daily for 7-28 days; person
Method: A 70 kilo […] with a history of diabetes and infected foot ulcerations, also known as diabetic foot, is treated with a parenteral preparation of 600 mg (S)-N-[[3-[3-fluoro-4-[4-(morpholinyl)[…]]-2-oxo-5-oxazolidinyl]methyl]acetamide. The preparation is administered two times daily for 7-28 days. The patient is evaluated by clinical observations and with x-rays for osteomyelitis, including with a “probe-to bone” test and a bone biopsy if the patient has an open wound.

[6] = system: aerobic gram positive bacteria; conditions: including streptococci, MRSA and VRE; cited from earlier work

CC(=O)NC[C@H]1CN(c2ccc(N3CCOCC3)c(F)c2)C(=O)O1 [Linezolid, (S)-N-[[3-[3-fluoro-4-(4-morpholinyl)phenyl]-2-oxo-5-oxazolidinyl]methyl]acetamide]
Clinical Efficacy (% Efficacy of the Evaluatable Population) ([1]; clinically evaluable population, 317 patients): 83% | clinical outcome versus amino/β-LI ([1]; infected ulcers and non-osteomyelitis cases): clinically superior | clinically cured patients ([1]; infected ulcers, FIG. 2): 81.4% | Clinical cure rates ([1]; intent-to-treat (ITT) and clinically evaluable (CE) populations, FIG. 1): comparable | overall clinical and micro-biological outcomes versus amino/β-LI ([1]; mostly given alone, PO, to outpatients): at least as effective overall as amino/β-LI | clinical cure rate ([1]; patients with osteomyelitis (n=60)): 61.0% | clinical cure rate ([1]; patients without osteomyelitis): 86% | clinical cure rate versus comparator [2]: significantly higher clinical cure rate | microbiological success rates ([3]; microbiologically evaluable (ME) patients): 72.2% | Microbiol. Efficacy (% Efficacy of the Evaluatable Population) ([3]; microbiologically evaluable population, 212 patients): 72% | resistance of isolated pathogens to the study drug [4]: None of the isolated pathogens was resistant | clinical observation of the ulcerated area after the course of treatment [5]: tissue destruction in the ulcerated area has visibly ceased and tissue repair has begun | antibacterial activity [6]: active against almost all aerobic gram positive bacteria
